Patent US20260297070A1, “CYCLIC [COMPOUND LEFT OUT] WRN INHIBITORS” (Nimbus Wadjet, Inc., priority 2023, published 2026)

These compounds were tested against T1, human Werner helicase (WRN-BV08, Uniprot Q14191, amino acids 517-1235 with L1074F point mutation) (Homo sapiens, UniProt Q14191, L1074F) (assay: WRN (BV08) ADP-Glo Assay). Details: 0.15 nM WRN, 5 μM ATP, 0.1 nM DNA duplex, 15 min preincubation, 60 min at 25° C., pH 7.5, 1% DMSO; read-out: ADP-Glo_hWRN_IC50.
T1 construct: Uniprot Q14191, amino acids 517-1235 with L1074F point mutation; TEV-cleavable 8×His (C, cleaved yes); made in house; host or cells: Sf9 insect cells (baculovirus)
Format: biochemical
Summary of the method: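 ADP produced by WRN helicase fragment 517-1235 (L1074F, baculovirus/Sf9, untagged) read by ADP-Glo luminescence after 60 min at 25 °C with 5 μM ATP and 0.1 nM duplex DNA, following 15 min compound preincubation. Final enzyme 0.15 nM in Bicine pH 7.5 buffer, 1% DMSO; 20 μM NSC-617145 defined full inhibition.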

T1 sequence (Q14191 with tags, fused parts or gaps L1074F limits assumed): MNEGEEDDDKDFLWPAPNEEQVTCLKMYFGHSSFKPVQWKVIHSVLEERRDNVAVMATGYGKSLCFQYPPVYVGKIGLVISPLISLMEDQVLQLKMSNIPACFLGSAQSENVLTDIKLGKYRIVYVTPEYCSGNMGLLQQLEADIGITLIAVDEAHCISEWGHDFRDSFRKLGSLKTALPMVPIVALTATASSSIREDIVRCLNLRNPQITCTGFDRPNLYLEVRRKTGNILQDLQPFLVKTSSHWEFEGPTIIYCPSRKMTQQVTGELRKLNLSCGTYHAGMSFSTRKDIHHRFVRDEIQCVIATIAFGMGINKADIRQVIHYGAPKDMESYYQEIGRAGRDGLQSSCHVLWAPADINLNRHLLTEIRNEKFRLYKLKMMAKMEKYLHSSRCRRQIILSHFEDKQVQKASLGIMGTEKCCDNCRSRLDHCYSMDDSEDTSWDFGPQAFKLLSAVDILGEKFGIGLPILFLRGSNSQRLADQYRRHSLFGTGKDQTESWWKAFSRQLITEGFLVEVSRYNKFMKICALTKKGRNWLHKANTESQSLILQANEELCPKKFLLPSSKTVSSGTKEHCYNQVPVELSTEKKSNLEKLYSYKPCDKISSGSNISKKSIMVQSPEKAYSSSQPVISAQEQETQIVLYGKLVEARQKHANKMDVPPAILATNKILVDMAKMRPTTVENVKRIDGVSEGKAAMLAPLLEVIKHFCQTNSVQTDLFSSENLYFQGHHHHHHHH

Row | Structure (SMILES) | IC50
1 | O=C(Cc1ccc(-n2cccc2)cc1)N(Cc1nc2c(s1)COCC2)C1C=CS(=O)(=O)C1 (centres unmarked) [I-178, N-(1,1-dioxo-2,3-dihydro-1lambda6-thiophen-3-yl)-N-({4H,6H,7H-pyrano[4,3-d][1,3]thiazol-2-yl}methyl)-2-[4-(1H-pyrrol-1-yl)phenyl]acetamide] | 0.5 to 5 µM
2 | Cc1cccn1-c1ccc(CC(=O)N(Cc2ccnc3c2CCO3)C2C=CS(=O)(=O)C2)c(F)c1 (centres unmarked) [I-179, N-(1,1-dioxo-2,3-dihydro-1lambda6-thiophen-3-yl)-2-[2-fluoro-4-(2-methyl-1H-pyrrol-1-yl)phenyl]-N-({2H,3H-furo[2,3-b]pyridin-4-yl}methyl)acetamide] | 0.5 to 5 µM
3 | CC(C)(O)c1cc(CN(C(=O)Cc2ccc(-c3ccc(Cl)cc3)cc2F)C2C=CS(=O)(=O)C2)ccn1 (centres unmarked) [I-180, 2-{4′-chloro-3-fluoro-[1,1′-biphenyl]-4-yl}-N-(1,1-dioxo-2,3-dihydro-1lambda6-thiophen-3-yl)-N-{[2-(2-hydroxypropan-2-yl)pyridin-4-yl]methyl}acetamide] | 0.5 to 5 µM
4 | Cc1cccn1-c1ccc(CC(=O)N(Cc2ccncn2)C2C=CS(=O)(=O)C2)c(F)c1 (centres unmarked) [I-181, N-(1,1-dioxo-2,3-dihydro-1lambda6-thiophen-3-yl)-2-[2-fluoro-4-(2-methyl-1H-pyrrol-1-yl)phenyl]-N-[(pyrimidin-4-yl)methyl]acetamide] | 0.5 to 5 µM
5 | C#CCCCC(=O)N1CCN(C(=O)c2ccc(CN(C(=O)Cc3ccc(-n4cccc4C)cc3F)C3C=CS(=O)(=O)C3)cc2)CC1 (centres unmarked) [I-182, N-(1,1-dioxo-2,3-dihydro-1lambda6-thiophen-3-yl)-2-[2-fluoro-4-(2-methyl-1H-pyrrol-1-yl)phenyl]-N-({4-[4-(hex-5-ynoyl)piperazine-1-carbonyl]phenyl}methyl)acetamide] | 0.5 to 5 µM
6 | O=C(Cn1cc2ccc(C(F)(F)F)cc2n1)N(Cc1ccncc1)C1C=CS(=O)(=O)C1 (centres unmarked) [I-183, N-(1,1-dioxo-2,3-dihydro-1lambda6-thiophen-3-yl)-N-[(pyridin-4-yl)methyl]-2-[6-(trifluoromethyl)-2H-indazol-2-yl]acetamide] | 0.5 to 5 µM
7 | NS(=O)(=O)c1ccc(CN(C(=O)Cc2ccc(-n3cccc3)cc2)C2C=CS(=O)(=O)C2)cc1 (centres unmarked) [I-184, N-(1,1-dioxo-2,3-dihydro-1lambda6-thiophen-3-yl)-2-[4-(1H-pyrrol-1-yl)phenyl]-N-[(4-sulfamoylphenyl)methyl]acetamide] | 0.5 to 5 µM
8 | O=C(O)c1ccc(CN(C(=O)Cc2ccc(-n3cccc3)cc2F)C2C=CS(=O)(=O)C2)cc1 (centres unmarked) [I-185, 4-{[N-(1,1-dioxo-2,3-dihydro-1lambda6-thiophen-3-yl)-2-[2-fluoro-4-(1H-pyrrol-1-yl)phenyl]acetamido]methyl}benzoic acid] | 0.5 to 5 µM
9 | O=C(Cn1cc(-c2ccccc2)cn1)N(Cc1ccncc1)C1C=CS(=O)(=O)C1 (centres unmarked) [I-186, N-(1,1-dioxo-2,3-dihydro-1lambda6-thiophen-3-yl)-2-(4-phenyl-1H-pyrazol-1-yl)-N-[(pyridin-4-yl)methyl]acetamide] | 0.5 to 5 µM
10 | O=C(Cc1ccc(-n2cccc2)cc1)N(Cc1ccnc(C(F)F)c1)C1C=CS(=O)(=O)C1 (centres unmarked) [I-187, N-{[2-(difluoromethyl)pyridin-4-yl]methyl}-N-(1,1-dioxo-2,3-dihydro-1lambda6-thiophen-3-yl)-2-[4-(1H-pyrrol-1-yl)phenyl]acetamide] | 0.5 to 5 µM
11 | O=C(Cc1ccc(-c2cccc(F)c2)cc1)N(Cc1ccncc1)C1C=CS(=O)(=O)C1 (centres unmarked) [I-188, N-(1,1-dioxo-2,3-dihydro-1lambda6-thiophen-3-yl)-2-{3′-fluoro-[1,1′-biphenyl]-4-yl}-N-[(pyridin-4-yl)methyl]acetamide] | 0.5 to 5 µM
12 | Cc1csc(CN(C(=O)Cc2ccc(-n3cccc3)cc2)C2C=CS(=O)(=O)C2)n1 (centres unmarked) [I-189, N-(1,1-dioxo-2,3-dihydro-1lambda6-thiophen-3-yl)-N-[(4-methyl-1,3-thiazol-2-yl)methyl]-2-[4-(1H-pyrrol-1-yl)phenyl]acetamide] | 0.5 to 5 µM
13 | N#Cc1csc(CN(C(=O)Cc2ccc(-n3cccc3)cc2)C2C=CS(=O)(=O)C2)n1 (centres unmarked) [I-190, N-[(4-cyano-1,3-thiazol-2-yl)methyl]-N-(1,1-dioxo-2,3-dihydro-1lambda6-thiophen-3-yl)-2-[4-(1H-pyrrol-1-yl)phenyl]acetamide] | 0.5 to 5 µM
14 | CC(F)(F)c1ccc(CC(=O)N(Cc2ccncc2)C2C=CS(=O)(=O)C2)cc1 (centres unmarked) [I-191, 2-[4-(1,1-difluoroethyl)phenyl]-N-(1,1-dioxo-2,3-dihydro-1lambda6-thiophen-3-yl)-N-[(pyridin-4-yl)methyl]acetamide] | 0.5 to 5 µM
15 | CN(C)C(=O)C(C(=O)N(Cc1ccnc(C(C)(C)O)c1)C1C=CS(=O)(=O)C1)c1ccc(S(F)(F)(F)(F)F)cc1 (centres unmarked) [I-192, N′-(1,1-dioxo-2,3-dihydro-1lambda6-thiophen-3-yl)-N′-{[2-(2-hydroxypropan-2-yl)pyridin-4-yl]methyl}-N,N-dimethyl-2-[4-(pentafluoro-lambda6-sulfanyl)phenyl]propanediamide] | 0.5 to 5 µM
16 | COc1cc(CN(C(=O)Cc2ccc(-c3ccc(F)cc3O)nc2)C2C=CS(=O)(=O)C2)ccn1 (centres unmarked) [I-194, N-(1,1-dioxido-2,3-dihydrothiophen-3-yl)-2-(6-(4-fluoro-2-hydroxyphenyl)pyridin-3-yl)-N-((2-methoxypyridin-4-yl)methyl)acetamide] | 5 to 10 µM
17 | COCC(C(=O)N(Cc1ccnc(C(C)(C)O)c1)C1C=CS(=O)(=O)C1)c1ccc(-c2ccc(F)c(F)c2)cc1F (centres unmarked) [I-195, N-(1,1-dioxo-2,3-dihydro-1lambda6-thiophen-3-yl)-N-{[2-(2-hydroxypropan-2-yl)pyridin-4-yl]methyl}-3-methoxy-2-{3,3′,4′-trifluoro-[1,1′-biphenyl]-4-yl}propanamide] | 0.5 to 5 µM
18 | O=C(Cc1ccc(-c2ccc(F)cc2)cc1C(F)F)N(Cc1ccncc1)C1C=CS(=O)(=O)C1 (centres unmarked) [I-196, 2-[3-(difluoromethyl)-4′-fluoro-[1,1′-biphenyl]-4-yl]-N-(1,1-dioxo-2,3-dihydro-1lambda6-thiophen-3-yl)-N-[(pyridin-4-yl)methyl]acetamide] | 0.5 to 5 µM
19 | CC(C)c1ccc(CC(=O)N(Cc2ccncc2)C2C=CS(=O)(=O)C2)cc1 (centres unmarked) [I-197, N-(1,1-dioxo-2,3-dihydro-1lambda6-thiophen-3-yl)-2-[4-(propan-2-yl)phenyl]-N-[(pyridin-4-yl)methyl]acetamide] | 0.5 to 5 µM
20 | COc1cc(CN(C(=O)Cc2ncc(-c3ccc(F)c(F)c3)cn2)C2C=CS(=O)(=O)C2)ccn1 (centres unmarked) [I-198, 2-[5-(3,4-difluorophenyl)pyrimidin-2-yl]-N-(1,1-dioxo-2,3-dihydro-1lambda6-thiophen-3-yl)-N-[(2-methoxypyridin-4-yl)methyl]acetamide] | 0.5 to 5 µM
21 | O=C(Cc1ccc(-c2ccc(F)cc2)cc1)N(Cc1ccncc1)C1C=CS(=O)(=O)C1 (centres unmarked) [I-200, N-(1,1-dioxo-2,3-dihydro-1lambda6-thiophen-3-yl)-2-{4′-fluoro-[1,1′-biphenyl]-4-yl}-N-[(pyridin-4-yl)methyl]acetamide] | 0.5 to 5 µM
22 | O=C(Cc1ccc(-n2cccc2)cc1)N(Cc1cccc(Cl)c1)C1C=CS(=O)(=O)C1 (centres unmarked) [I-201, N-[(3-chlorophenyl)methyl]-N-(1,1-dioxo-2,3-dihydro-1lambda6-thiophen-3-yl)-2-[4-(1H-pyrrol-1-yl)phenyl]acetamide] | 0.5 to 5 µM
23 | COc1cc(CN(C(=O)Cc2ccc(-n3cccc3C)cc2F)C2C=CS(=O)(=O)C2)nc(OC)c1 (centres unmarked) [I-202, N-[(4,6-dimethoxypyridin-2-yl)methyl]-N-(1,1-dioxo-2,3-dihydro-1lambda6-thiophen-3-yl)-2-[2-fluoro-4-(2-methyl-1H-pyrrol-1-yl)phenyl]acetamide] | 0.5 to 5 µM
24 | O=C(Cc1ccc(-c2ccc(F)cc2F)cc1)N(Cc1ccncc1)C1C=CS(=O)(=O)C1 (centres unmarked) [I-203, 2-{2′,4′-difluoro-[1,1′-biphenyl]-4-yl}-N-(1,1-dioxo-2,3-dihydro-1lambda6-thiophen-3-yl)-N-[(pyridin-4-yl)methyl]acetamide] | 0.5 to 5 µM
25 | CCc1cccn1-c1ccc(CC(=O)N(Cc2ccnc(OC)c2)C2C=CS(=O)(=O)C2)c(F)c1 (centres unmarked) [I-204, N-(1,1-dioxo-2,3-dihydro-1lambda6-thiophen-3-yl)-2-[4-(2-ethyl-1H-pyrrol-1-yl)-2-fluorophenyl]-N-[(2-methoxypyridin-4-yl)methyl]acetamide] | 0.5 to 5 µM
26 | O=C(Cc1ncc(-c2ccc(F)cc2)cc1F)N(Cc1ccncc1)C1C=CS(=O)(=O)C1 (centres unmarked) [I-205, N-(1,1-dioxo-2,3-dihydro-1lambda6-thiophen-3-yl)-2-[3-fluoro-5-(4-fluorophenyl)pyridin-2-yl]-N-[(pyridin-4-yl)methyl]acetamide] | 0.5 to 5 µM
27 | Cc1cccn1-c1ccc(CC(=O)N(Cc2ccncc2)C2C=CS(=O)(=O)C2)cc1 (centres unmarked) [I-206, N-(1,1-dioxo-2,3-dihydro-1lambda6-thiophen-3-yl)-2-[4-(2-methyl-1H-pyrrol-1-yl)phenyl]-N-[(pyridin-4-yl)methyl]acetamide] | 0.5 to 5 µM
28 | Cc1cc(CN(C(=O)Cc2ccc(-n3cccc3)cc2)C2C=CS(=O)(=O)C2)ccn1 (centres unmarked) [I-207, N-(1,1-dioxo-2,3-dihydro-1lambda6-thiophen-3-yl)-N-[(2-methylpyridin-4-yl)methyl]-2-[4-(1H-pyrrol-1-yl)phenyl]acetamide] | 0.5 to 5 µM
29 | O=C(Cc1ccc(-n2cccc2)cc1Cl)N(Cc1ccncc1)C1C=CS(=O)(=O)C1 (centres unmarked) [I-208, 2-[2-chloro-4-(1H-pyrrol-1-yl)phenyl]-N-(1,1-dioxo-2,3-dihydro-1lambda6-thiophen-3-yl)-N-[(pyridin-4-yl)methyl]acetamide] | 0.5 to 5 µM
